Where no end group is shown, it is not given here.
What was measured:
[1] = tested on: tumour infiltrating Th cells in MSI+ tumours; conditions: cited from earlier work
[2] = tested on: T cells (PBMC) from healthy donors; assay: T-cell proliferation (3H-thymidine uptake, stimulation index) after in vitro stimulation of PBMC with fsp2+fsp4 cocktail; format: cell-based, human; conditions: for Immune response of Donor 3: Donor 3, stimulation with fsp2 and fsp4 mixture, FIG. 11; for Immunogenicity relative to fsp3 and fsp4: FIGS. 10 and 11, peptides with wild-type TGFβR2 amino acids vs without; for Immunogenicity (T cell proliferation, stimulation index): first and second round of stimulation with fsp2+fsp4, 10 μM test peptide, FIGS. 10-12
Experimental: Fresh buffy coats from four healthy donors were obtained from a blood bank.
Peripheral blood mononuclear cells (PBMC) isolated from fresh buffy coats from four healthy donors were counted and suspended in DC medium to 15*10^6 cells/ml, and subsequently diluted with DC-medium to 4*10^6 cells/ml (Table 6).
Four 24-well plates were used for each donor, with 4*10^6 cells per well (each well has a volume of 1 ml).
Peptide cocktail: Solution of peptides fsp2+fsp4, containing 10 μM of each peptide. 40 μl peptide solution was added to each well.
The plates were incubated in a cell incubator for 14 days (37° C., 5% CO2). IL-2 and IL-7 were added on day 3. The cells were inspected daily.
Test peptides: fsp2+fsp4 (SEQ ID NOs: 5 and 7), fsp1 (SEQ ID NO: 4), fsp2 (SEQ ID NO: 5), fsp3 (SEQ ID NO: 6), fsp4 (SEQ ID NO: 7), fsp5 (SEQ ID NO: 3).
Cells and reagents were added to plate wells (in triplicate) as described in Tables 7 and 8 below. The total volume added to each well was 0.20 ml. • T cells (PBMC): 50 000 cells/well (0.25*10^6 cells/ml) • APC: Irradiated (30Gy, 8 minutes) autologous feeder cells: 50 000 cells/well • Peptide (fspx): […] peptide/well (each peptide), concentration: 10 μM peptide. (fsp was dissolved in DMSO before dilution to correct concentration)
The plates were incubated in a cell incubator for 48 hours (37° C., 5% CO2).
After incubation for 48 hours, 20 μl 3H-tThymidine solution (5 μCi/ml) was added to each well and the plates were incubated for approximately 17 hours (37° C., 5% CO2).
After 17 hours the cells were harvested (Unifilters) and dried on the filters at 45° C. until completely dry. After covering the bottom of the Unifilters with adhesive covers (delivered with the Unifilters) 25 μl micro scintillation liquid was added to each well, the plate was covered with TopSeal and 3H-Thymidine uptake was measured as counts per minute (CPM) using a microplate scintillation counter.
The T cell proliferation results after the first round of in vitro stimulation with the cocktail of fsp2 and fsp4 peptides are presented as stimulation index (SI) in FIG. 10. SI=mean CPM (triplicates) of (T cells+APC+test peptide(s)) divided by mean CPM (triplicates) of (T cells+APC). SI≥2 is a clear signal of immunogenicity.
PBMCs harvested after the first in vitro stimulation were re-stimulated in vitro according to the protocol set out above, with 2×10^6 cells per well. T-cell proliferation was tested according to the protocol set out above.
The T cell proliferation results after a second round of in vitro stimulation with the cocktail of fsp2 and fsp4 peptides are presented as stimulation index (SI) in FIG. 11.

[3] = Peptide solubility; format: physicochemical
Experimental: The peptide was difficult to dissolve and it was attempted to dissolve the crude fsp5 (SEQ ID NO: 3) (˜150 mg) in approximately 4 ml 50% MeCN in water under gentle heating.
Another batch of fsp5 (SEQ ID NO: 3) was prepared, dissolved in neat DMSO under gentle heating and purified by preparative HPLC. Again, only very small amounts of purified fsp5 (SEQ ID NO: 3) were obtained.

[4] = Peptide stability (purity by UPLC after lyophilisation or storage); format: physicochemical; conditions: purified peptide, dropped from around 90% before lyophilisation
Experimental: A batch of fsp5 (SEQ ID NO: 3) was prepared by solid phase peptide synthesis (SPPS) by using FMOC chemistry and Prelude synthesizer (Gyros Protein Technologies Inc., USA). The crude peptide was analysed by UPLC and MS. […] UPLC system: Column; Acquity UPLC BEH C18 […], […], detection; PDA 210-500 nm, solvent A); 0.1% TFA in water, solvent B; 0.1% TFA in MeCN, gradient: 20-70% B (2-10 minutes, linear).
When the purity of the small amount of purified fsp5 (SEQ ID NO: 3) was reassessed by UPLC after lyophilisation, the purity had dropped from around 90% to below 50% as shown in FIG. 4.

[5] = tested on: T-cells from PMBCs from four healthy donors; assay: T-cell proliferation (stimulation index) after induction of PBMC with fsp2, fsp8 and fsp9 mixture; format: cell-based, human; conditions: for Immunogenicity (T-cell proliferation, stimulation index): first round of stimulation, T-cells induced with fsp2+fsp8+fsp9, FIG. 13
Experimental: The same protocol as that set out in Example 7 was used to test the immunogenicity of fsp6 and fsp7 (SEQ ID NO: 26 and SEQ ID NO: 27, respectively), except for the peptide mixture used to induce T-cells from PMBCs from fresh buffy coats from four healthy donors. The peptide mixture used in this Example to induce T-cells from PMBCs was made up of fsp2 (SEQ ID NO: 5; 10 μM), fsp8 (SEQ ID NO: 31; 10 μM) and fsp9 (SEQ ID NO: 32; 10 μM). Fsp8 (SEQ ID NO: 31; […]) is a peptide of ASTE1 having a −1a frameshift mutation, and fsp9 (SEQ ID NO: 32; […]) is a peptide of TAF1β having a −1a frameshift mutation.
At day 14 after induction, a T-cell proliferation assay was carried out as in Example 7, using fsp2 (SEQ ID NO: 5), fsp6 (SEQ ID NO: 26) and fsp7 (SEQ ID NO: 27) as test peptides. As fsp8 and fsp9 have very different amino acid sequences from fsp2, only fsp2 would be able to induce T-cells which are capable of recognising and being stimulated by fsp2, fsp6 and fsp7. […] Two further rounds of T-cell stimulation were also carried out, with a T-cell proliferation assay being carried out 14 days after each stimulation.
The T-cell proliferation results after the first round of in vitro stimulation are presented as stimulation index (SI) in FIG. 13. […] It is also expected, in view of the results shown in FIGS. 11 and 12, that a peptide having the sequence of fsp6 (SEQ ID NO: 26) but having an amino acid substitution corresponding to that in fsp2, and particularly a C-to-G amino acid substitution as in fsp2, is also immunogenic and is useful as a vaccine or treatment against cancer. […] Thus, it is expected that fsp6a (SEQ ID NO: 28), which is identical to fsp6 (SEQ ID NO: 26) except for the same C-to-G amino acid substitution as fsp2 (SEQ ID NO: 5), will also be immunogenic.

[6] = tested on: CTLs (HLA-A2.1 restricted); conditions: cited from earlier work
[7] = tested on: colorectal cancer cell line HCT116; conditions: cell line carries the corresponding frameshift mutation; cited from earlier work
[8] = tested on: T-cells; conditions: after four rounds of stimulation of the T-cells; cited from earlier work
[9] = tested on: CTL; conditions: cited from earlier work
[10] = patients recognising the peptide

In the case of “AMTTSSSQKNITPAILTCC [p537, prior art peptide of mutTGFβR2]”, the “Immunogenicity (Saeterdal, PNAS)” value [1] is listed as “not immunogenic”.

For “KCIMKEKKSLVRLSSCVPVALMSA (listed as Homo sapiens) [fsp1]”, the “Immune response of Donor 3” value [2] was “showed an immune response”, the “Immunogenicity relative to fsp3 and fsp4” value [2] was “more immunogenic” and the “Immunogenicity (T cell proliferation, stimulation index)” value [2] was “immunogenic”.

With “KCIMKEKKSLVRLSSCVPVALMSAMTTSSSQKN (listed as Homo sapiens) [fsp5]” the “Solubility: effect of water on crude DMSO solution” value ([3]; addition of even small amounts of water to crude DMSO solution) was “precipitation of the peptide”, the Solubility ([3]; crude peptide ~150 mg in approximately 4 ml 50% MeCN in water under gentle heating) was “no clear solution could be obtained” and the “Purity by UPLC after lyophilisation (stability)” value [4] was “below 50%”. For the same substance, the “Immunogenicity relative to fsp3 and fsp4” value [2] was “more immunogenic” and the “Immunogenicity (T cell proliferation, stimulation index)” value [2] was “immunogenic”.

In the case of “KGIMKEKKSLVRLSSCVPVALMSA (not fully specified) [fsp2]”, the “Immunogenicity relative to fsp7” value ([5]; FIG. 13) is reported as “much more immunogenic”, the “Immune response of Donor 3” value [2] is reported as “showed an immune response” and the “Immunogenicity relative to fsp3 and fsp4” value [2] is reported as “more immunogenic”. The “Immunogenicity (T cell proliferation, stimulation index)” value [2] was “immunogenic”.

For “PKCIMKEKKKSLVRLSSCV [p541, prior art peptide of mutTGFβR2]”, the “Immunogenicity (Saeterdal, PNAS)” value [1] is listed as “immunogenic” and the “Induction of T-cell responses in patients” value [1] is listed as “able to induce T-cell responses in some patients”.

For “RLSSCVPVA [p573, prior art peptide of mutTGFβR2]”, the “Activation of specific CTLs in vitro” value ([6]; HLA-A2.1 restricted) is listed as “capable of activating specific CTLs”, the “Immunogenicity (FIG. 1 of Linnebacher et al.)” value [6] is listed as “immunogenic” and the “Lysis of HCT116” value [7] is listed as “able to lyse”. For the same substance, the “Immunogenicity (FIG. 14 of EP1078000)” value [8] was “not immunogenic”, the “Generation of CTL line and clones” value [9] was “able to generate a CTL line and several CTL clones” and the “Immunogenicity (Saeterdal, Cancer Immunol Immunother)” value [9] was “immunogenic”.

In the case of “SLVRLSSCV [p523, prior art peptide of mutTGFβR2]”, the “Immunogenicity (FIG. 1 of Linnebacher et al.)” value [6] is given as “not immunogenic” and the “Immunogenicity (FIG. 14 of EP1078000)” value [8] is given as “immunogenic”.

In the case of “SLVRLSSCVPVALMSAMTTSSSQ [p538, prior art peptide of mutTGFβR2]”, the “Immunogenicity (Saeterdal, PNAS)” value [1] is given as “highly immunogenic”, the “Recognition by patients having spontaneous MSI+ colon cancer” value [1, 10] is given as “two of three” and the “Recognition by patients with HNPCC” value [1, 10] is given as “all three”.

For “SPKCIMKEKKSLVRLSSCVPVA [P540, prior art peptide of mutTGFβR2]”, the “Immunogenicity (Saeterdal, PNAS)” value [1] is listed as “immunogenic” and the “Induction of T-cell responses in patients” value [1] is listed as “able to induce T-cell responses in some patients”.

With “SSGVPVALMSAMTTSSSQKN (also: 2TFA salt) [fsp4]” the “Immunogenicity (T cell proliferation, stimulation index)” value [2] was “immunogenic”.

In the case of “fsp6: Peptide of SEQ ID NO: 26; same sequence as fsp2 but truncated at the C-terminus and without C-to-G substitution (KCIMKEKKSLVRLSSCV; listed as Homo sapiens)”, the “Immunogenicity relative to fsp2” value ([5]; FIG. 13) is reported as “less immunogenic”, the “Immunogenicity relative to fsp7” value ([5]; FIG. 13) is reported as “much more immunogenic” and the “Immunogenicity (T-cell proliferation, stimulation index)” value [5] is reported as “immunogenic”.

With “fsp7: Peptide of SEQ ID NO: 27; same amino acid sequence as fsp2 but truncated at the N-terminus (VRLSSCVPVALMSA; listed as Homo sapiens)” the “Immunogenicity (T-cell proliferation, stimulation index)” value [5] was “too truncated at the N-terminus compared to fsp2 (SEQ ID NO 5) to be immunogenic”.

Reference: patent publication US20220213170A1, “PEPTIDES” (Hubro Therapeutics AS, priority 2019, published 2022)
